Assay results from patent US7585886B2, “Pyrrolidine derivative or salt thereof” (Astellas Pharma Inc., priority 2005, dated 2009).
Structures can show the parent of a compound that is named as a salt. Where two headings read alike, the source gives them in different places.

Tests used:
CYP2D6 [1] = target: T1, CYP2D6 (Homo sapiens, UniProt P10635); test: Human CYP2D6 inhibition test (fluorescence substrate AMMC); assay type: in vitro ADME; parameters: purchased BD Gentest 456217
Procedure: Test 3. Human CYP2D6 Inhibition Test
Inhibitory activity evaluation for CYP2D6 was carried out by measuring it in accordance, roughly, with a reference (“Drug Metabolism and Disposition”, 2001, vol. 29, p. 1196-1200).
Final concentrations of the reagents in the enzyme reaction solution were respectively ser to CYP2D6=[…] (mfd. by BD Gentest, Cat. No.: 456217), reduced type nicotinamide adenine dinucleotide phosphate (NADPH) regeneration system (0.0081 mM nicotinamide adenine dinucleotide phosphate (NADP+), 0.41 mM glucose-6-phosphate, 0.41 mM MgCl2, […] glucose-6-phosphate dehydrogenase), and a fluorescence substrate AMMC=1.5 μM, 100 mM potassium phosphate buffer (pH 7.4). Each compound was made into a 50% acetonitrile solution and added to the enzyme reaction solution (acetonitrile final concentration 2.5%). The enzyme reaction was carried out at 37° C. for 30 minutes, the reaction was stopped using a stopping liquid (0.1 M tris(hydroxymethyl)aminomethane (Tris-base):acetonitrile=20:80), and then fluorescence intensity was measured. The concentration showing 50% inhibition (IC50) was calculated from the thus obtained fluorescence intensity, by defining the enzyme activity at the time of no compound addition as 100%.

human CaSR = target: T2, human CaSR (Homo sapiens, UniProt P41180); test: Human calcium sensing receptor (CaSR) agonistic activity test (FLIPR, Fluo-3 intracellular Ca2+); assay type: cell-based
T2 construct: human CaSR open reading frame (ORF) was contained in the pcDNA3.1/Zeo(+) vector; expressed in transfected cells
T2 sequence (P41180 20-1078): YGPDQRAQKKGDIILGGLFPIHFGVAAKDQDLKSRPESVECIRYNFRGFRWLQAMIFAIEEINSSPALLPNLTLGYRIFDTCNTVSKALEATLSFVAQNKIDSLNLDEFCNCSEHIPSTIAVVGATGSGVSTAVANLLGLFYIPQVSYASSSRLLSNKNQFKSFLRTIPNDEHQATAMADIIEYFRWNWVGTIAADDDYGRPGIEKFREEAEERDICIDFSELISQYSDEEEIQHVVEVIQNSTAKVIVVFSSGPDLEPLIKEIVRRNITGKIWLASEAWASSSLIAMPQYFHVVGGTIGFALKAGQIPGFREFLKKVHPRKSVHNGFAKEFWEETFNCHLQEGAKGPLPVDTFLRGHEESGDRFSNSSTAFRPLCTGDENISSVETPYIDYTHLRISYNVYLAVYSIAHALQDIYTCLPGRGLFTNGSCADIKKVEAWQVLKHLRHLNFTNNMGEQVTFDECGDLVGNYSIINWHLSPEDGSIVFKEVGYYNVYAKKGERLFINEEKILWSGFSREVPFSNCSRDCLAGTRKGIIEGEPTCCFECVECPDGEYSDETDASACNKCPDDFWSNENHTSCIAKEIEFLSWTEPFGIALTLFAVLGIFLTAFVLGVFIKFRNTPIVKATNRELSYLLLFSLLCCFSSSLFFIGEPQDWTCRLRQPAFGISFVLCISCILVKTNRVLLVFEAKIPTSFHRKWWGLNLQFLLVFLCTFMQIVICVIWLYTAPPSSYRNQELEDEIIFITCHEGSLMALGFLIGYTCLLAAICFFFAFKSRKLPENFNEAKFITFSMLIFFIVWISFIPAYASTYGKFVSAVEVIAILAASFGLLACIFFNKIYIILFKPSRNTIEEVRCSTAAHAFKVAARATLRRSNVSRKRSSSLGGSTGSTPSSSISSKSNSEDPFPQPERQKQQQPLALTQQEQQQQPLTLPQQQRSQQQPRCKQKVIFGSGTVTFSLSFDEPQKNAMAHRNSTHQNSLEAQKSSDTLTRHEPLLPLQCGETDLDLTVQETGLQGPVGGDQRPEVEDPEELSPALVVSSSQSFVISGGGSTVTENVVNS
Text: Test 1. Human Calcium Sensing Receptor (CaSR) Agonistic Activity Test
• 1) Preparation of Human CaSR Expression Vector
A DNA fragment coding for human CaSR was cloned in the standard method. Illustratively, using 203 to 2387 of NM_000388 as a DNA fragment D4, and 2210 to 3633 as a DNA fragment B2, they were amplified using a human kidney cDNA (mfd. by Invitrogen) as the template and using a DNA polymerase (a registered trade name: Pyrobest, mfd. by Takara Bio), and respectively cloned into a pCR2.1 vector using a pCR2.1-Topo vector (mfd. by Invitrogen). Next, DNA fragments prepared by digesting pCR2.1-D4 with SpeI and XbaI were inserted into the same sites of pcDNA3.1/Zeo(+) vector. Successively, the fragments prepared by digesting pCR2.1-B2 with SacI and XbaI were inserted into the SacI and XbaI sites of previously prepared pcDNA3.1/Zeo(+)-D4 (SpeI-XbaI), thereby obtaining a human CaSR expression vector pcDNA3.1/Zeo(+)-hCaSR in which human CaSR open reading frame (ORF) was contained in the pcDNA3.1/Zeo(+) vector. • 2) Preparation of Human CaSR Expression Cell
The human CaSR expression vector was transferred into HEK 293 cell using a transfection reagent (registered trademark: FuGene 6, mfd. by Roche Diagnostics). After the gene transfer, this was cultured in DMEM (mfd. by Invitrogen) medium containing 40 μg/ml Zeocin (registered trademark) (mfd. by Invitrogen) and 10% fetal bovine serum at 37° C. for 2 weeks in the presence of 5% CO2, thereby obtaining Zeocin-resistant clones. An human CaSR stably expressing HEK 293 clone was obtained from these clones by selection using the responsiveness to extracellular Ca^2+ as the index. • 3) Human CaSR Agonistic Activity Test
The HEK 293 cell stably expressing human CaSR was inoculated into a poly-D-lysine-coated black clear bottom 96 well plate (mfd. by BD Bioscience). Hanks' balanced salt solution (HBSS) (Ca^2+ (−), Mg^2+ (−), mfd. by Invitrogen) containing 20 mM HEPES (2-[4-(2-hydroxyethyl)-1-piperazinyl]ethanesulfonic acid) buffer (pH 7.4), 2.5 mM probenecid (mfd. by Sigma) and 0.1% bovine serum albumin was prepared as a washing buffer. After the inoculation and subsequent overnight culturing, the medium was discarded, the washing buffer supplemented with 1 mM CaCl2 and 10 μM Fluo-3 AM (trade name, mfd by DOJINDO) was added thereto in 100 μl per well portions, and then the incubation was carried out at 37° C. for 1Hour in the presence of 5% CO2. This was washed twice with 200 μl of the washing buffer, replaced by 100 μl of the washing buffer supplemented with 0.5 mM CaCl2 and allowed to stand still for 10 minutes, and then the responsiveness to each compound to be evaluated was detected using a plate reader for fluorometry image analysis use (registered trademark: FLIPR, mfd. by Molecular Devices). In this connection, the compound to be evaluated was used by optionally diluting with the washing buffer supplemented with 0.5 mM Ca^2+.
The human CaSR agonistic activity strength of each compound to be evaluated was calculated by defining the solvent group as 0% and the 2 mM Ca^2+ in final concentration group as 100%, and the compound concentration showing 50% activity (EC50) was calculated from a concentration-activity curve by the method of least squares.

[2] = Measurement of rat plasma calcium concentration after single oral administration; assay type: in vivo; details: normal male rats, 3 mg/kg oral administration
Procedure: Test 2. Measurement of Rat Plasma Calcium Concentration and Plasma PTH Concentration
The compounds of the invention were administered to rats, and their influences upon the plasma calcium concentration and plasma PTH concentration were examined. The test was carried out by single oral administration of the compounds 5 or 6 normal male rats.
As a vehicle group, an MC solution prepared by adding 0.5% methyl cellulose (MC) solution or ethanol to a final concentration of 5% was administered at a dose of 5 ml/kg. As the comparative control, cinacalcet was dissolved in the MC solution and administered at a dose of 3 mg/kg. Each of the compounds, of the invention was dissolved or suspended the MC solution, or dissolved in ethanol and then diluted with the MC solution as occasion demands, and administered at a dose of 1, 3 or 10 mg/kg.
Blood samples were collected from the orbital venous plexus under ether anesthesia before the administration and 2Hours, 4Hours, or 8Hours in some cases, after the administration, and the plasma calcium concentration was measured using Calcium E-Test Wako (mfd. by Wako Pure Chemical Industries), and the plasma PTH concentration using Rat Intact PTH ELISA Kit (mfd. by Immutopics) or Rat Bioactive Intact PTH ELISA Kit (mfd. by Immutopics).

CYP2D6 [3] = target: T1, CYP2D6; details: reported, Non-patent Reference 4; cited from earlier work
[4] = HEK 293 cell stably expressing human CaSR, 0.5 mM Ca2+ buffer, solvent group 0%, 2 mM Ca2+ group 100%, read-out: EC50 (compound concentration showing 50% activity), human CaSR agonistic activity
[5] = recombinant CYP2D6, AMMC 1.5 μM, 37° C. 30 minutes, read-out: IC50 (concentration showing 50% inhibition), CYP2D6

T1 sequence (P10635 whole entry): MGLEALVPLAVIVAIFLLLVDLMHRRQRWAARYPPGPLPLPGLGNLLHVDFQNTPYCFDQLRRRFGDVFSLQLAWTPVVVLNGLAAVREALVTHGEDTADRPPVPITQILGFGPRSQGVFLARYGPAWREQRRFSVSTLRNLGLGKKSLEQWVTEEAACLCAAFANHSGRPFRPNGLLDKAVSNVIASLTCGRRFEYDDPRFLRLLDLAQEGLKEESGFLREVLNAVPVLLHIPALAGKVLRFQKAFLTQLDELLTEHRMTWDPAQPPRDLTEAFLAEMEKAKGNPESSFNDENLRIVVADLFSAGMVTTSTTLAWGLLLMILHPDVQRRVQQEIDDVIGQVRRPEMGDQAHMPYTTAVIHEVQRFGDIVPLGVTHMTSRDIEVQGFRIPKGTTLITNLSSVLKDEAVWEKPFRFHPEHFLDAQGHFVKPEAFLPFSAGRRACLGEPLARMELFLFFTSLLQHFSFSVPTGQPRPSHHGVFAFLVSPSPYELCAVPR

Compound	EC50 (human CaSR; [4]) [nM]	IC50 (CYP2D6 [1]; [5]) [nM]	other results
C[C@@H](NC[C@H]1CN(C(=O)Oc2ccc(C(=O)O)cc2)C[C@@H]1c1ccccc1)c1cccc2ccccc12.Cl [Example 33, 4-({[(3S,4S)-3-({[(1R)-1-(1-naphthyl)ethyl]amino}methyl)-4-phenylpyrrolidin-1-yl]carbonyl}oxy)benzoic acid hydrochloride]	–	–	Rat plasma calcium concentration reducing ratio (%) 4 hours after administration [2]: 21%; EC50 (human CaSR): 2.3 nM
C[C@@H](NC[C@H]1CN(C(=O)Nc2ccc(C(=O)O)cc2)C[C@@H]1c1ccccc1)c1cccc2ccccc12 [Example 41, 4-({[(3S,4S)-3-({[(1R)-1-(1-naphthyl)ethyl]amino}methyl)-4-phenylpyrrolidin-1-yl]carbonyl}amino)benzoic acid hydrochloride]	4.9	≥ 6000	–
Cc1cccc([C@H]2CN(c3c(F)cc(C(=O)O)cc3F)C[C@@H]2CN[C@H](C)c2cccc3ccccc23)c1 [Example 171]	16	–	Rat plasma calcium concentration reducing ratio (%) 4 hours after administration [2]: 20%
C[C@@H](NC[C@H]1CN(C(=O)Oc2ccc(C(=O)O)cc2)C[C@@H]1c1cccc(F)c1)c1cccc2ccccc12 [Example 174]	–	–	EC50 (human CaSR): 3.4 nM
C[C@@H](NC[C@H]1CN(C(=O)Oc2ccc(C(=O)O)cc2)C[C@@H]1c1cccc(F)c1F)c1cccc2ccccc12 [Example 179]	–	–	IC50 (CYP2D6 [1]): ≥ 6000 nM; EC50 (human CaSR): 0.77 nM
C[C@@H](NCCCc1cccc(C(F)(F)F)c1)c1cccc2ccccc12 [cinacalcet]	–	–	activity to inhibit CYP2D6 (in words) (CYP2D6 [3]): strong activity to inhibit CYP2D6
CC(NC[C@H]1CN(C(=O)Oc2ccc(C(=O)O)cc2)C[C@@H]1c1ccccc1)c1csc2ccccc12 (stereo partly shown) [compound 53]	5.2	–	–

More lines, main results first:

EC50 (human CaSR; [4]) [nM]	IC50 (CYP2D6 [1]; [5]) [nM]	Compound	other results
3.6	–	C[C@@H](NC[C@H]1CN(c2c(F)cc(C(=O)O)cc2F)C[C@@H]1c1ccccc1)c1cccc2ccccc12 [Example 31, 3,5-difluoro-4-[(3S,4S)-3-({[(1R)-1-(1-naphthyl)ethyl]amino}methyl)-4-phenylpyrrolidin-1-yl]benzoic acid hydrochloride]	IC50 at 30 min (CYP2D6 [1]; human, recombinant CYP2D6 (BD Gentest, Cat. No. 456217), pH 7.4, probe AMMC 1.5 μM, recombinant CYP2D6, AMMC 1.5 μM, 37° C. 30 minutes, read-out: IC50 (concentration showing 50% inhibition), CYP2D6): ≥ 6000 nM
3.1	≥ 6000	COc1cc(C(=O)O)ccc1NC(=O)N1C[C@H](CN[C@H](C)c2cccc3ccccc23)[C@@H](c2ccccc2)C1 [Example 45, 3-methoxy-4-({[(3S,4S)-3-({[(1R)-1-(1-naphthyl)ethyl]amino}methyl)-4-phenylpyrrolidin-1-yl]carbonyl}amino)benzoic acid hydrochloride]	–
4	–	C[C@@H](NC[C@H]1CN(C(=O)CCCCC(=O)O)C[C@@H]1c1cccc(C(F)(F)F)c1)c1cccc2ccccc12 [Example 48, 6-{(3S,4S)-3-({[(1R)-1-(1-naphthyl)ethyl]amino}methyl)-4-[3-(trifluoromethyl)phenyl]pyrrolidin-1-yl}-6-oxohexanoic acid hydrochloride]	–
5.2	≥ 6000	C[C@@H](NC[C@H]1CN(C(=O)c2ccc(-c3ccsc3C(=O)O)o2)C[C@@H]1c1ccccc1)c1cccc2ccccc12 [Example 98]	–
28	≥ 6000	C[C@@H](NC[C@H]1CN(C(=O)CC(C)(C)CC(=O)O)C[C@@H]1c1ccccc1)c1cccc2ccccc12 [Example 109]	Rat plasma calcium concentration reducing ratio (%) 4 hours after administration [2]: 17%
15	–	C[C@@H](NC[C@H]1CN(c2ccc(-c3nnn[nH]3)cc2)C[C@@H]1c1ccccc1)c1cccc2ccccc12 [Example 130]	–
3.5	≥ 6000	COc1cc(C(=O)O)ccc1NC(=O)N1C[C@H](CN[C@H](C)c2cccc3ccccc23)[C@@H](c2cccc(C)c2)C1 [Example 183]	Rat plasma calcium concentration reducing ratio (%) 4 hours after administration [2]: 20%
